# Assay: Residual parent lipid in mouse liver at 24 h (hEPO study)
# Type: in vivo
# Conditions: CD-1 mice
smiles,measurement,value
CCCCCC(CCCCC)CCOC(=O)CCCCCCCN(CCO)CCCCCCCC(=O)OCCC(CCCCC)CCCCC [compound 25],Parent Lipid Remaining (nmol/g liver tissue) at 24 h,0.1 0.04 nmol/g liver tissue

# Reference: patent US20240216288A1, “LIPID NANOPARTICLES CONTAINING POLYNUCLEOTIDES ENCODING PROPIONYL-COA CARBOXYLASE ALPHA AND BETA SUBUNITS AND USES THEREOF” (ModernaTX, Inc., priority 2021, published 2024)
